Test results taken from patent US6534496B1, “Thermogenic composition and benzazepine thermogenics” (Takeda Chemical Industries, Inc., priority 1997, dated 2003).
Where a name gives a salt, the structure may show the parent alone.

Row | SMILES | melting point
1 | COc1ccc(CN2CCc3ccc(C(=O)CCC4CCN(Cc5ccc(Cl)c(Cl)c5)CC4)cc3CC2)cc1 (as salt: hydrochloride) [Example 96, 3-[1-[(3,4-Dichlorophenyl)methyl]-4-piperidinyl]-1-[3-[(4-methoxyphenyl)methyl]-2,3,34,5-tetrahydro-1H-3-benzazepin-7-yl]-1-propanone Dihydrochloride] | 220 to 223 °C (dec.)
2 | O=C(CCC1CCN(Cc2cccc(C(F)(F)F)c2)CC1)c1ccc2c(c1)CN(Cc1ccccc1)CCO2 (as salt: hydrochloride) | 235 to 237 °C
3 | Cc1cccc(CN2CCC(CCC(=O)c3ccc4c(c3)CN(Cc3ccccc3)CCO4)CC2)c1 (as salt: hydrochloride) [Example 4, 3-[1-[(3-Methylphenyl)methyl]-4-piperidinyl]-1-[4-(phenylmethyl)-2,3,4,5-tetrahydro-1,4-benzoxazepin-7-yl]-1-propanone Dihydrochloride] | 212 to 214 °C
4 | Cc1ccc(CN2CCC(CCCC(=O)c3ccc4c(c3)CCN(Cc3ccc(Cl)cc3)CC4)CC2)cc1 (as salt: hydrochloride) | 230 to 234 °C
5 | CC(=O)N1CCC(CCC(=O)c2ccc3c4c2CCCC4CN3C(C)=O)CC1 (centres unmarked) [Example 67, 3-(1-Acetyl-4-piperidinyl)-1-(1-acetyl-1,2,2a,3,4,5-hexahydrobenz[cd]indol-6-yl)-1-propanone] | 130 to 132 °C
6 | Cc1ccccc1CN1CCc2ccc(C(=O)CCCC3CCN(Cc4ccccc4NS(C)(=O)=O)CC3)cc2CC1 (as salt: hydrochloride) | 185 to 195 °C (dec.)
7 | CCOC(=O)COc1ccc(CN2CCC(CCC(=O)c3ccc4c(c3)CCN(Cc3ccc(F)cc3)CC4)CC2)cc1 (as salt: hydrochloride) [Example 45, Ethyl 2-[4-[[4-[3-[3-[(4-fluorophenyl)methyl]-2,3,4,5-tetrahydro-1H-3-benzazepin-7-yl]-3-oxopropyl]-1-piperidinyl]methyl]phenoxy]ethanoate Dihydrochloride] | 206 to 208 °C
8 | Cc1ccc(CN2CCC(CCCC(=O)c3ccc4c(c3)CCN(Cc3ccccc3[N+](=O)[O-])CC4)CC2)cc1 (as salt: hydrochloride) [Example 198, 4-[1-[(4-Methylphenyl)methyl]-4-piperidinyl]-1-[3-[(2-nitrophenyl)methyl]-2,3,4,5-tetrahydro-1H-3-benzazepin-7-yl]-1-butanone Dihydrochloride] | 164 to 167 °C
9 | Cc1ccccc1CN1CCc2ccc(C(=O)CCCC3CCN(Cc4ccccc4C(=O)N4CCOCC4)CC3)cc2CC1 (as salt: hydrochloride) [Example 314, 1-[3-[(2-Methylphenyl)methyl]-2,3,4,5-tetrahydro-1H-3-benzazepin-7-yl]-4-[1-[[2-(morpholinocarbonyl)phenyl]methyl]-4-piperidinyl]-1-butanone Dihydrochloride] | 168 to 172 °C
10 | CCOC(=O)C(C)(C)c1cccc(CN2CCC(CCCC(=O)c3ccc4c(c3)CCN(Cc3ccccc3)CC4)CC2)c1 (as salt: hydrochloride) [Example 153, Ethyl 2-methyl-2-[3-[[4-[4-[3-(phenylmethyl)-2,3,4,5-tetrahydro-1H-3-benzazepin-7-yl]-4-oxobutyl]-1-piperidinyl]methyl]phenyl]propionate Dihydrochloride] | 146 to 148 °C
11 | O=C(CCC1CCN(Cc2cccc(C(F)(F)F)c2)CC1)c1ccc2c(c1)CN(Cc1ccc(F)cc1)CCC2 (as salt: hydrochloride) | 197 to 199 °C
12 | O=C(CCC1CCN(Cc2ccccc2C(F)(F)F)CC1)c1ccc2c(c1)CN(Cc1ccccc1)CCO2 (as salt: hydrochloride) [Example 12, 1-[4-(Phenylmethyl)-2,3,4,5-tetrahydro-1,4-benzoxazepin-7-yl]-3-[1-[(2-trifluoromethylphenyl)methyl]-4-piperidinyl]-1-propanone Dihydrochloride] | 223 to 225 °C
13 | O=C(CCC1CCN(Cc2ccc(-c3ccccc3)cc2)CC1)c1ccc2c(c1)CCN(Cc1ccc(F)cc1)CC2 (as salt: hydrochloride) [Example 49, 1-[3-[(4-Fluorophenyl)methyl]-2,3,4,5-tetrahydro-1H-3-benzazepin-7-yl]-3-[1-[(4-phenylphenyl)methyl]-4-piperidinyl]-1-propanone Dihydrochloride] | 225 to 228 °C (dec.)
14 | COc1ccc(CN2CCC(CCC(=O)c3ccc4c(c3)CCN(Cc3ccc(F)cc3)CC4)CC2)cc1OC (as salt: hydrochloride) | 199 to 203 °C
15 | CC(=O)N1CCC(CCC(=O)c2cc3c4c(c2)CCN4C(=O)CC3)CC1 [Example 66, 8-[3-(1-Acetyl-4-piperidinyl)-1-oxopropyl]-1,2,5,6-tetrahydro-4H-pyrrolo[3,2,1-ij]quinolin-4-one] | 160 to 161 °C
16 | CNC(=O)Nc1ccccc1CN1CCC(CCCC(=O)c2ccc3c(c2)CCN(Cc2ccccc2C)CC3)CC1 (as salt: hydrochloride) | 176 to 189 °C (dec.)
17 | O=C(CCC1CCN(Cc2cc(C(F)(F)F)cc(C(F)(F)F)c2)CC1)c1ccc2c(c1)CN(Cc1ccccc1)CCO2 (as salt: hydrochloride) | 234 to 236 °C
18 | Cc1ccccc1CN1CCC(CCC(=O)c2ccc3c(c2)CN(Cc2ccccc2)CCO3)CC1 (as salt: hydrochloride) | 232 to 234 °C
19 | CC(=O)Nc1ccccc1CN1CCC(CCCC(=O)c2ccc3c(c2)CCN(Cc2ccccc2C)CC3)CC1 (as salt: hydrochloride) | 172 to 178 °C
20 | O=C(CCC1CCN(Cc2cccc(C(F)(F)F)c2)CC1)c1ccc2c(c1)CN(Cc1ccc(F)cc1)CCO2 (as salt: hydrochloride) | 225 to 227 °C
21 | N#Cc1ccccc1CN1CCc2ccc(C(=O)CCCC3CCN(Cc4ccccc4Cl)CC3)cc2CC1 [Example 265, 4-[1-[(2-Chlorophenyl)methyl]-4-piperidinyl]-1-[3-[(2-cyanophenyl)methyl]-2,3 4,5-tetrahydro-1H-3-benzazepin-7-yl]-1-butanone] | 103 to 104 °C
22 | CC(=O)N1CCC(CCC(=O)c2ccc3c(c2)CNc2ccccc2CC3)CC1 [Example 69, 3-(1-Acetyl-4-piperidinyl)-1-(5,6,11,12-tetrahydrodibenz[bf]azocin-8-yl)-1-propanone] | 153 to 155 °C
23 | CC(C)(C)c1ccc(CN2CCC(CCC(=O)c3ccc4c(c3)CN(Cc3ccc(F)cc3)CCO4)CC2)cc1 (as salt: hydrochloride) [Example 108, 1-[4-[(4-Fluorophenyl)methyl]-2,3,4,5-tetrahydro-4-benzoxazepin-7-yl]-3-[1-[[4-(tert-butyl)phenyl]methyl]-4-piperidinyl]-1-propanone Dihydrochloride] | 240 to 243 °C
24 | CC(=O)Nc1ccccc1CN1CCc2ccc(C(=O)CCCC3CCN(Cc4ccccc4Cl)CC3)cc2CC1 (as salt: hydrochloride) [Example 315, N-[2-[[7-[4-[1-[(2-chlorophenyl)methyl]-4-piperidinyl]butanoyl]-2,3,4,5-tetrahydro-1H-3-benzazepin-3-yl]methyl]phenyl]acetamide Dihydrochloride] | 138 to 144 °C

Continued, values first:

Row | melting point | SMILES
25 | 201 to 203 °C | O=C(CCCC1CCNCC1)c1ccc2c(c1)CCN(Cc1ccccc1)CC2 (as salt: hydrochloride) [Example 26, 1-[3-(Phenylmethyl)-2,3,4,5-tetrahydro-1H-3-benzazepin-7-yl]-4-(4-piperidinyl)-1-butanone Dihydrochloride]
26 | 226 to 229 °C (dec.) | Cc1ccccc1CN1CCC(CCCC(=O)c2ccc3c(c2)CCN(Cc2ccccc2)CC3)CC1.Cl.Cl
27 | 208 to 210 °C | O=C(CCCCC1CCN(Cc2ccccc2)CC1)c1ccc2c(c1)CCN(Cc1ccccc1)CC2 (as salt: hydrochloride) [Example 209, 5-[1-(Phenylmethyl)-4-piperidinyl]-1-[3-(phenylmethyl)-2,3,4,5-tetrahydro-1H-3-benzazepin-7-yl]-1-pentanone Dihydrochloride]
28 | 155 to 164 °C (dec.) | Nc1ccccc1CN1CCc2ccc(C(=O)CCCC3CCN(Cc4ccccc4Cl)CC3)cc2CC1 (as salt: hydrochloride) [Example 316, 1-[3-[(2-Aminophenyl)methyl]-2,3,4,5-tetrahydro-1H-3-benzazepin-7-yl]-4-[1-[(2-chlorophenyl)methyl]-4-piperidinyl]-1-butanone Trihydrochloride]
29 | 222 to 225 °C (dec.) | Cc1cccc(CN2CCC(CCCC(=O)c3ccc4c(c3)CCN(Cc3ccccc3)CC4)CC2)c1.Cl.Cl
30 | 94 to 95 °C | CC(=O)N1CCC(CCCC(=O)c2ccc3c(c2)CCN(Cc2ccccc2C)CC3)CC1 [Example 125, 4-(1-Acetyl-4-piperidinyl)-1-[3-[(2-methylphenyl)methyl]-2,3,4,5-tetrahydro-1H-3-benzazepin-7-yl]-1-butanone]
31 | 197 to 200 °C | Cc1ccccc1CN1CCc2ccc(C(=O)CCCC3CCN(Cc4ccc(F)cc4)CC3)cc2CC1.Cl.Cl
32 | 179 to 187 °C | CC(=O)Nc1cccc(CN2CCC(CCCC(=O)c3ccc4c(c3)CCN(Cc3ccccc3)CC4)CC2)c1 (as salt: hydrochloride) [Example 179, N-[3-[[4-[4-[3-(Phenylmethyl)-2,3,4,5-tetrahydro-1H-3-benzazepin-7-yl]-4-oxobutyl]-1-piperidinyl]methyl]phenyl]acetamide Dihydrochloride]
33 | 192 to 203 °C (dec.) | Cc1ccccc1CN1CCc2ccc(C(=O)CCCC3CCNCC3)cc2CC1 (as salt: hydrochloride) [Example 255, 1-[3-(2-Methylphenyl)methyl]-2,3,4,5-tetrahydro-1H-3-benzazepin-7-yl]-4-(4-piperidinyl)-1-butanone Dihydrochloride]
34 | 213 to 216 °C (dec.) | CN1CCC(CCC(=O)c2ccc3c(c2)CCN(Cc2ccc(F)cc2)CC3)CC1 (as salt: hydrochloride) [Example 42, 1-[3-[(4-Fluorophenyl)methyl]-2,3,4,5-tetrahydro-1H-3-benzazepin-7-yl]-3-(1-methyl-4-piperidinyl)-1-propanone Dihydrochloride]
35 | 150 to 152 °C | Cc1ccccc1CN1CCc2ccc(C(=O)CCCC3CCN(Cc4cccc(C(=N)N)c4)CC3)cc2CC1 [Example 260]
